Data published in patent publication US12350310B2, “Treatment and prevention of nephrotoxin-induced kidney injuries” (Farsight Medical Technology (Shanghai) Co., Ltd., priority 2019, dated 2025).
Several values for one entry are separate records, joined by “and”; a condition that tells them apart may be missing. Equal values may be shown once. Entries after “also recorded” stand apart in the source; their conditions may differ.

Assays:
[1] = system: gentamicin-induced acute kidney injury; assay: Gentamicin-induced acute kidney injury model in rats, pathology and dose response (Example 2); format: in vivo; conditions: Compound I 0.5, 3, 9 mg/kg i.p.
Experimental: A further study in rats was carried out essentially in analogy to the general study protocol described in Example 1, to further assess the efficacy and impact of Compound I against gentamicin-induced acute kidney injury and to test the dose response. The tissue pathology, as well as the additional biomarkers were assessed.
Five groups formed part of the study (See Table 2): control (Group 1), vehicle (Group 2), and animals receiving Compound I at doses of 0.5 mg/kg (Group 3), 3 mg/kg (Group 4) and 9 mg/kg (Group 5). Except for the control Group 1, gentamicin (100 mg/kg) was given by intraperitoneal injection for 10 consecutive days, once daily from Day 1 to Day 10.
The vehicle, or Compound I formulated in the vehicle was administered intraperitoneally (i.p.) for 10 days, from Day 1 to Day 10 of the study (total 11 times). On initiation of the experiment (Day 1), Compound I at the specified dose amounts was administered by i.p. injection 6 h, and 1 h before the gentamicin injection to the animals in groups 3, 4 and 5. Thereafter, on Day 2 to Day 10, Compound I was administered once daily at the specified dose to said study groups, approximately 1 h prior to the gentamicin injection. On day 10, the rats were euthanized. Blood samples were collected, and the kidney tissues (both left and right kidneys) of the rats were also taken for H&E staining. Histopathological evaluation was performed on the kidney sections using standard methods and scoring criteria in the art to assess the level of tissue damage caused by the gentamicin-induced acute kidney injury. The kidney sections were assessed and scored for: necrosis of renal tubules, tubular dilation, loss of tubular brush border, cast formation in the renal tubules, and interstitial inflammatory cell (neutrophil) infiltration. The scoring was performed on a scale of 0 to 4 (0=0% i.e. no observation, 1≤5%, 2=5-25%, 3=25-50%, 4≥50% i.e. extensive, severe, or widely visible damage) on both left and right kidney tissues. The scoring was accumulated to provide a total combined score.
Kidney function analysis based on blood urea nitrogen (BUN) and creatinine in the serum was performed. Assay in plasma for biomarkers NGAL (neutrophil gelatinase-associated lipocalin) and Kim-1 (kidney injury molecule-1) was also determined.

[2] = system: gentamicin-induced acute kidney injury; assay: Gentamicin-induced acute kidney injury model in rats (Example 1); format: in vivo, male Wistar rats; conditions: Compound I 3 mg/kg i.p. before gentamicin 100 mg/kg i.p. daily
Experimental: Efficacy of the compound of Compound I against gentamicin-induced acute kidney injury was tested in a model study with male Wistar rats (180-220 g) randomly grouped based on body weights. Three groups formed part of the study: control, vehicle, and compound I (see Table I). Except for the control group, gentamicin (100 mg/kg) was given by intraperitoneal injection for 10 consecutive days, once daily from Day 1 to Day 10. The first day of gentamicin injection was designated as Day 1 of the study.
The vehicle, or the Compound I formulated in the vehicle was administered intraperitoneally (i.p.) for 10 days, from Day 1 to Day 10 of the study (total 11 times). On initiation of the experiment (Day 1), Compound I (3 mg/kg) was administered by i.p. injection 6 h, and 1 h before the gentamicin injection. Thereafter, on Day 2 to Day 10, Compound I was administered once daily (3 mg/kg) 1 h prior to the gentamicin injection. Body weights of the rats were recorded daily. On the day 10, the animals were euthanized and blood sample was collected via cardiac punction. Serum was collected and stored at −80° C. for kidney function analysis of blood urea nitrogen (BUN) and creatinine.

[3] = system: rhabdomyolysis-induced acute kidney injury; assay: Rhabdomyolysis-induced (glycerine) acute kidney injury model in rats (Example 3); format: in vivo, male SD rats; conditions: Compound I 3 mg/kg IP at 6 h and 1 h prior to glycerine, kidneys after 48 h, Group 3, Mean (SEM)
Experimental: The efficacy of Compound I in protection against rhabdomyolysis-induced acute kidney injury was tested in a model study in male SD rats. The acute kidney injury model was induced in the rats by bilateral intra-muscular injection of 50% Glycerine (at a dose volume of 10 ml/kg body weight, divided into two sites of injection at each limb). Glycerine induces physiological conditions which are closely associated with rhabdomyolysis, such as myoglobinuria, tubular necrosis, and renal vasoconstriction.
Three groups formed part of the study: sham, vehicle, and compound I. Except for the sham group, where no glycerine was injected, animals were dosed twice intraperitoneally with either Compound I or Vehicle: at 6 h and at 1 h prior to receiving the glycerine injection (see Table 3).
After 48 h, the animals were euthanized, and their right and left kidneys were fixed in formalin 10%. Each kidney was cut longitudinally into 2 halves, both placed in a cassette and processed in paraffin. Sections were cut and stained using Hematoxylin and Eosin (H&E). The kidney sections were examined and histopathological analysis and scoring was performed for tubular, endothelial, glomerular and tubulointerstitial damage based on scoring systems in the art (e.g. Khalid U. et al, Journal of Histology & Histopathology. Volume 3, Article 1. 2016). Tubular epithelial necrosis scoring was based on the total number of tubules in the outer stripe of the outer medulla (OSOM). Tubulointerstitial damage was scored as a total percentage of the entire tissue observed in the section. The scores of each parameter were also added to provide a total histopathological score.
Table 4 summarizes the histopathology scoring results for the test groups sham (Group 1), vehicle (Group 2) and compound I (Group 3). All data are presented as Mean±SEM. All treatment groups were compared to the sham group (Group 1) or to the vehicle group (Group 2) using Student's T-Test. A p value <0.05 is considered to represent a significant difference.

[4] = especially G4 and G5, versus G2 vehicle
[5] = gentamicin 100 mg/kg daily, Day 10, versus G2 vehicle
[6] = gentamicin 100 mg/kg daily, Day 10, versus Group 2 vehicle

C/C=C/C[C@@H](C)[C@@H](O)[C@H]1C(=O)N[C@@H](CC)C(=O)N(C)[C@H](OCCN(C)C)C(=O)N(C)[C@@H](CC(C)C)C(=O)N[C@@H](C(C)C)C(=O)N(C)[C@@H](CC(C)C)C(=O)N[C@@H](C)C(=O)N[C@H](C)C(=O)N(C)[C@@H](CC(C)C)C(=O)N(C)[C@@H](CC(C)C)C(=O)N(C)[C@@H](C(C)C)C(=O)N1C [Compound I, [(R)-2′ (2-dimethylaminoethoxy)-Sar]^3 cyclosporin A]
total acute kidney injury pathology scoring of kidney tissue (FIG. 4A) ([1]; especially 3 and 9 mg/kg groups, gentamicin 100 mg/kg daily, Day 10, versus G2 vehicle): statistically significant impact in terms of generally reducing the severity of physical injury
KIM-1 biomarker level in plasma at endpoint (FIG. 7) [1, 4]: statistically relevant reduced levels
NGAL biomarker level in plasma at endpoint (FIG. 8) [1, 4]: statistically relevant reduced levels
severity of neutrophil infiltration (FIG. 4B) [1, 5]: markedly reduced
severity of tubular dilation (FIG. 4B) [1, 5]: markedly reduced
serum BUN level at endpoint (FIG. 6) [1, 6]: lower
serum creatinine level at endpoint (FIG. 5) [1, 6]: lower
rate of body weight gain over the 10-day study period (FIG. 1A) ([2]; Day 1-10, versus vehicle group): faster rate of body weight gain
overall body-weight change from baseline measurement on Day 1 (FIG. 1B) ([2]; Day 1 to Day 10, versus vehicle group): higher compared to the rats only treated with vehicle
serum blood urea nitrogen (BUN) level at endpoint (FIG. 2) ([2]; Day 10 serum): lower, compared to levels determined for the vehicle group; also recorded: comparable or similar levels as measured for the control group
serum creatinine level at endpoint (FIG. 3) ([2]; Day 10 serum): lower, compared to levels determined for the vehicle group; also recorded: comparable or similar levels as measured for the control group
ED (Endothelial damage) score, Mean [3]: 0.00 a.u.
GD (Glomerular damage) score, Mean [3]: 0.00 a.u.
TD (Tubular Damage) score, Mean [3]: 1.10±0.07 a.u. and 1.10## a.u.
TID (Tubulointersititial damage) score, Mean ([3]; p<0.01 vs. vehicle): 1.15±0.08 a.u. and 1.15##** a.u.
Total Histopathological Score, Mean ([3]; p<0.01 vs. vehicle): 2.15±0.08 a.u. and 2.15##** a.u.
